Test results: paper PMC3973950, “Synthesis of 5-arylidine amino-1,3,4-thiadiazol-2-[(N-substituted benzyol)]sulphonamides endowed with potent antioxidants and anticancer activity induces growth inhibition in HEK293, BT474 and NCI-H226 cells” (Medicinal Chemistry Research, 2013)

Legend:
[1] = In vitro cytotoxicity by MTT assay, HEK 293; type: cell-based, human; conditions: human, HEK 293 cells, read-out: % cytotoxicity (100 − % cell survival) of HEK 293 cell line
Outline: (§1)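 Cells seeded at ~10,000/well in RPMI-1640 with 10 % newborn calf serum, grown 24 h, then exposed to compounds for 72 h at 37 °C, 5 % CO2. Viability read by MTT (4 h), formazan dissolved in propanol, absorbance at 490 nm.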

[2] = test system: HEK 293, M468 and NCI-H226; test: In vitro cytotoxicity by MTT assay, summary over all cell lines; type: cell-based; conditions: on all cell lines
Method: The cancer cell line cultures of HEK 293 ([…]), BT474 (breast cancer cell line) and NCI-H226 (lung cancer) were obtained from Pasteur Institute of India, Coonoor, India, and were cultured in RPMI-1640 and 10 % heat-[…] New born calf serum with antibiotics [penicillin ([…]), streptomycin (100 μg/mL) and amphotericin B (25 μg/mL)]. The cells were maintained at 37 °C in a humidified atmosphere with 5 % CO2 and were subcultured twice a week.
The monolayer cell culture (100 μL) was trypsinized, and the cell count was adjusted to […] using medium containing 10 % new born calf serum. To each well of the 96-well microtitre plate, the diluted cell suspension (approximately 10,000 cells) (0.1 mL) was added and kept for 24 h in incubator at 37 °C in 5 % CO2 atmosphere for cell monolayer formation. After 24 h, when a partial monolayer was formed at the bottom of the well, the supernatant was flicked off, the monolayer was washed once, and different drugs, i.e. synthesized compounds (100 μL), were added to the cells in microtitre plates. The plates were then incubated at 37 °C for 3 days in 5 % CO2 atmosphere, and microscopic examination was carried out and observations recorded every 24 h. After 72 h, the sample solution in the wells was flicked off; MTT dye ([…]) was added to each well; plates were gently shaken and incubated for 4 h at 37 °C in 5 % CO2 incubator. The supernatant was removed and propanol (50 μL) was added; the plates were gently shaken to solubilize the formed formazan. The absorbance was measured using a microplate reader at a wavelength of 490 nm (Edmondson et al., [1988]; Prasad et al., [2005]; Chiruvella et al., [2008]; Chang et al., [2007]).

[3] = test system: BT474 (breast cancer cell line); test: In vitro cytotoxicity by MTT assay, BT474; type: cell-based; conditions: Homo sapiens, 72 h, read-out: % cytotoxicity (100 − % cell survival) of BT474 cell line; for cytotoxicity at 0.005 µM: BT-474, 0.005 μM; for cytotoxicity at 0.015 µM: BT-474, 0.015 μM; for cytotoxicity at 0.045 µM: BT-474, 0.045 μM; for cytotoxicity at 0.13 µM: BT-474, 0.13 μM; for cytotoxicity at 0.41 µM: BT-474, 0.41 μM; for cytotoxicity at 1.23 µM: BT-474, 1.23 μM; for cytotoxicity at 3.7 µM: BT-474, 3.7 μM; for cytotoxicity at 11.11 µM: BT-474, 11.11 μM; for cytotoxicity at 33.33 µM: BT-474, 33.33 μM; for cytotoxicity at 100 µM: BT-474, 100 μM
Outline: as §1

[4] = In vitro cytotoxicity by MTT assay, NCI-H226; type: cell-based; conditions: human, NCI-H226 lung cancer cells, 0.015 μM, read-out: % Cytotoxicity (100 − % cell survival) of NCI-H226 cell line
Outline: as §1

[5] = test system: NCI-H226 (lung cancer cell line); test: In vitro cytotoxicity by MTT assay, NCI-H226; type: cell-based; conditions: Homo sapiens, 72 h, read-out: % Cytotoxicity (100 − % cell survival) of NCI-H226 cell line; for cytotoxicity at 0.005 µM: NCI-H226, 0.005 μM; for cytotoxicity at 0.045 µM: NCI-H226, 0.045 μM; for cytotoxicity at 0.13 µM: NCI-H226, 0.13 μM; for cytotoxicity at 0.41 µM: NCI-H226, 0.41 μM; for cytotoxicity at 1.23 µM: NCI-H226, 1.23 μM; for cytotoxicity at 3.7 µM: NCI-H226, 3.7 μM; for cytotoxicity at 11.11 µM: NCI-H226, 11.11 μM; for cytotoxicity at 33.33 µM: NCI-H226, 33.33 μM; for cytotoxicity at 100 µM: NCI-H226, 100 μM
Outline: as §1

## Nc1nnc(S(=O)(=O)NC(=O)c2ccccc2)s1 [Compound 4a, 5-amino-1,3,4-thiadiazol-2-[N-(benzoyl)]sulphonamide]
[1]
  cytotoxicity at 72 h, 0.005 µM: 25.6%
  cytotoxicity at 72 h, 0.015 µM: 25.8%
  cytotoxicity at 72 h, 0.045 µM: 26.6%
  cytotoxicity at 72 h, 0.13 µM: 26.9%
  cytotoxicity at 72 h, 0.41 µM: 28.2%
  cytotoxicity at 72 h, 1.23 µM: 28.5%
  cytotoxicity at 72 h, 3.7 µM: 28.9%
  cytotoxicity at 72 h, 11.11 µM: 29.5%
  cytotoxicity at 72 h, 33.33 µM: 31.7%
  cytotoxicity at 72 h, 100 µM: 33%
[2]
  cytotoxic activity compared with all synthesized compounds: less activity
[3]
  cytotoxicity at 0.005 µM: 20.1%
  cytotoxicity at 0.015 µM: 22.6%
  cytotoxicity at 0.045 µM: 23.1%
  cytotoxicity at 0.13 µM: 24.6%
  cytotoxicity at 0.41 µM: 25.4%
  cytotoxicity at 1.23 µM: 25.9%
  cytotoxicity at 3.7 µM: 26.3%
  cytotoxicity at 11.11 µM: 27.4%
  cytotoxicity at 33.33 µM: 28.1%
  cytotoxicity at 100 µM: 28.7%
[4]
  cytotoxicity at 72 h, 0.015 µM: 23.1%
[5]
  cytotoxicity at 0.005 µM: 22.4%
  cytotoxicity at 0.045 µM: 24.2%
  cytotoxicity at 0.13 µM: 24.9%
  cytotoxicity at 0.41 µM: 25.5%
  cytotoxicity at 1.23 µM: 26.1%
  cytotoxicity at 3.7 µM: 26.6%
  cytotoxicity at 11.11 µM: 27.1%
  cytotoxicity at 33.33 µM: 27.5%
  cytotoxicity at 100 µM: 27.9%

## CC(=O)Nc1ccc(S(=O)(=O)Nc2nnc(S(=O)(=O)NC(=O)c3ccccc3N)s2)cc1 [Compound 6b]
[1]
  cytotoxicity at 72 h, 0.005 µM: 35.6%
  cytotoxicity at 72 h, 0.015 µM: 36.2%
  cytotoxicity at 72 h, 0.045 µM: 37.9%
  cytotoxicity at 72 h, 0.13 µM: 39.9%
  cytotoxicity at 72 h, 0.41 µM: 42.6%
  cytotoxicity at 72 h, 1.23 µM: 43.1%
  cytotoxicity at 72 h, 3.7 µM: 44%
  cytotoxicity at 72 h, 11.11 µM: 45.3%
  cytotoxicity at 72 h, 33.33 µM: 46.8%
  cytotoxicity at 72 h, 100 µM: 48.2%
[2]
  cytotoxic activity compared with all synthesized compounds: moderate activity
[3]
  cytotoxicity at 0.005 µM: 24.3%
  cytotoxicity at 0.015 µM: 25.1%
  cytotoxicity at 0.045 µM: 25.8%
  cytotoxicity at 0.13 µM: 26.2%
  cytotoxicity at 0.41 µM: 27.1%
  cytotoxicity at 1.23 µM: 28.1%
  cytotoxicity at 3.7 µM: 28.7%
  cytotoxicity at 11.11 µM: 29.3%
  cytotoxicity at 33.33 µM: 30.3%
  cytotoxicity at 100 µM: 32%
[4]
  cytotoxicity at 72 h, 0.015 µM: 37.3%
[5]
  cytotoxicity at 0.005 µM: 36.3%
  cytotoxicity at 0.045 µM: 38.4%
  cytotoxicity at 0.13 µM: 39.1%
  cytotoxicity at 0.41 µM: 42%
  cytotoxicity at 1.23 µM: 42.7%
  cytotoxicity at 3.7 µM: 43.4%
  cytotoxicity at 11.11 µM: 45.3%
  cytotoxicity at 33.33 µM: 47.1%
  cytotoxicity at 100 µM: 49.1%
